This note sets out measurements from patent publication US20080113908A1, “Use of CRF receptor agonists for the treatment or Prophylaxis of diseases, for example Neurodegenerative diseases” (SmithKline Beecham plc, priority 2000, published 2008).

In test [1] the test system is cerebellar granule neurones. The experiment in a line: Assay 3: intracellular cyclic AMP enzyme immunoassay. The test is classed as cell-based, rat. The note with it: agonist 0 to 30 nM, 15 min, 0.5 mM IBMX. The method, then: Assay 3: The production of cAMP by the CRF receptor agonist peptides CRF, urotensin 1, urocortin and sauvagine was measured as follows. This assay can be used analogously for any putative CRF receptor agonists including non-peptide agonists.
Intracellular cyclic AMP was measured with a cAMP 2-site enzyme immunoassay system (trade mark BIOTRAK, commercially available from Amersham Pharmacia Biotech, PO Box 164, Rainham, Essex RM13 8JZ, United Kingdom, Amersham catalogue number RPN225), based upon the use of a sensitive and highly specific capture antibody for cyclic AMP:
Cerebellar granule neurones were seeded in polylysine-coated […] plates, 3.5×10^5 cells per 48-well, in Basal medium Eagle's containing 10% fetal calf serum, 25 mM KCl, and antibiotics. At 8-9 days in vitro, granule neurone cultures were shifted to serum-free plating medium (0.4 ml) with 0.5 mM IBMX (to inhibit the breakdown of cyclic AMP) for 15 min (37° C.). Wells then received 0.1 ml of test peptide (5× final concentration). Generally 1 μM is the preferable final concentration for a putative CRF agonist under test, though different (e.g. lower) concentrations can be used as shown for the peptide agonists in FIG. 3. Incubation was continued for 15 min. Test medium was removed and the plate placed on dry ice, and stored at −140° C. Cyclic AMP analysis was performed the following day.
Cells were then lysed with the reagent provided with the BIOTRAK kit. Intracellular content of cyclic AMP in the lysates was assayed following the manufacturer's instructions. A standard curve was constructed using the cyclic AMP calibration provided, with the quantity of bound cyclic AMP being inversely proportional to the amount of second (chromogenic) antibody bound to the reaction wells. The colour product was read with an ELISA plate reader, and was a function of the amount of cyclic AMP in the unknown sample.

For test [2], the target named is cerebellar granule neurones. The test is classed as cell-based, rat. The note with it: 48 h. The method, then:
Cerebellar granule neurones were used in the examples to test neuroprotection by CRF receptor agonists. Cerebellar granule neurones (CGNs) undergo apoptosis during the first few weeks of postnatal life, and in culture require mildly depolarising concentrations of KCl (25 mM) for their survival and maturation (S. R: D'Mello et al., Proc. Natl. Acad. Sci. USA 90, 10989-10993, 1993). The growth signal provided by KCl depends upon activation of the phosphatidylinositol 3-kinase (PI 3-kinase) pathway, and pharmacological inhibition of PI 3-kinase in differentiated granule neurones leads to apoptotic death in the CGNs (T. M. Miller et al., J. Biol. Chem., 272, 9847-9853, 1997). Thus, cultured CGNs represent a suitable model to study mechanisms of programmed cell death, and to identify putative neuroprotective signalling pathways.
Assay 1: Cerebellar granule neurones prepared from postnatal day 8 Sprague Dawley rat pups were used for experiments on death induced by inhibition of PI 3-kinase. General culture methods are described in S. D. Skaper et al. in Methods in Neurosciences, Vol. 2 (Conn P. M., ed), pp. 17-33. Academic Press, San Diego, 1990. At 8-9 days in vitro (DIV), granule neurone cultures were shifted to phenol red-free Dulbecco's modified Eagle's medium lacking serum, and containing 0.05% bovine serum albumin and 25 mM KCl. Death was induced by addition of the PI 3-kinase inhibitor LY 294002 (75 μM). CRF or CRF agonist peptides (urotensin 1, urocortin, sauvagine) were added at different concentrations (from 0.3nM to 300 nM or 1000 nM) together with LY 294002. Forty-eight hours later neuronal survival was quantified by a colorimetric reaction MTT. Absolute MTT values obtained were normalised for small differences in interexperiment plating densities by scaling to the mean of sham-treated sister cultures (defined as 100%).
Results are shown in Table 1 below and in graphical form in FIG. 1, which show the percentage mean neuronal survival (and standard deviation), when in the presence of the relevant CRF receptor agonists and LY 294002, as a function of agonist concentration. […] Urotensin 1, urocortin and sauvagine were also neuroprotective albeit with lower potency (<1 μM).

Turning to “H-SQEPPISLDLTFHLLREVLEMTKADQLAQQAHNNRKLLDIA-NH2 [CRF]”, the “cAMP synthesis induced by agonist (FIG. 3)” value in test [1] is reported as “cAMP production increased with agonist concentration”. Besides, the 50% effective concentration (EC50) in test [2] was about 10 nM.
